One block for each compound: values may come before it.
Legend:
Assay type in all cases: cell-based, human
[1] = tested on: A549 lung adenocarcinoma cells (EGFR wild-type); assay: MTS growth inhibition assay, A549
Excerpt: (§1) Six lung adenocarcinoma cell lines (A549, H23, H441, H1650, H1975 and H3255), one squamous cell line (H157) and one large cell carcinoma cell line (H1299) were used in this study. H3255 was provided by National Cancer Institute and maintained in ACL-4 medium (GIBCO) with 5% fetal bovine serum (GIBCO). A549, H23, H441, H1650, H1975, H157 and H1299 were purchased from American Type Culture Collection (ATCC) and maintained in RPMI 1640 (GIBCO) with 10% fetal bovine serum. hTERT-immortalized normal human bronchial epithelial cells (HBET2) were established.
(§2) Growth inhibition was assessed by MTS assay (Dojindo, Japan) to examine the effect of AG1478 on lung cancer cell lines. Cell suspensions (5,000 cells/well) were seeded into 96-well plates and increasing concentrations of AG1478 (0, 0.4, 2.0, 10 and 50 μM) were added. After incubation for 72 h at 37° C., MTS [3-(4,5-dimethylthiazol-2-yl)-5-(3-carboxymethoxyphenyl)-2-(4-sulfophenyl) 2H-tetrazolium, inner salt] was added to each well and incubated for 2 h at 37° C., and then absorbance was measured using a microplate reader with a test wavelength of 450 nm. The IC50 value was defined as the concentration needed for 50% reduction of the growth by treatment with AG1478. Each experiment was done at least in triplicate, and four times independently. The data were shown as mean±SD.

[2] = tested on: miR-21 expression in H3255 cells; assay: qRT-PCR of miR-21 expression after AG1478/EGF treatment, H3255; conditions: for miR-21 expression levels: AG1478 2 μM or 10 μM
Method: (§3) FIGS. 2A-2B: AG1478 represses miR-21 expression. H3255 lung adenocarcinoma cells, characterized by a high expression of miR-21 and EGFR mutation, were serum-starved for 24 h and then grown in either the presence or absence of AG1478 (2 μM or 10 μM) for 2 h with or without following exposure to 20 ng/ml of EGF for 15 min.
FIG. 2B: MiR-21 expression levels analyzed by qRT-PCR after the AG1478 treatments (2 μM or 10 μM) with or without EGF ligand stimulation. MiR-21 expression levels were expressed as the relative values to untreated cells in the absence of EGF. Data were mean±SD from four independent experiments. *, p<0.05, paired t-test.
(§4) Expression of mature miRs was examined using qRT-PCR analysis using a TaqMan Human MicroRNA Assay kit (Applied Biosystems, Foster City, Calif.). RNU6B was used as an endogenous control (#4373381, Applied Biosystems). Reactions were performed using a PRISM 7700 Sequence Detector System (Applied Biosystems). Gene expression was quantified and values were reported as 2-ΔΔCT. Data were presented as mean±SD from triplicate.
(§5) AG1478 was purchased from Calbiochem (San Diego, Calif.). Epidermal growth factor (EGF) was purchased from Promega (Madison, Wis.). To evaluate the effect of AG1478 on the EGFR signaling pathway and miR-21 expression levels, lung cancer cell lines were serum-starved for 24 h, incubated in the presence or absence of AG1478 (2 μM or 10 μM) for 2 h, and then for an additional 15 min in the presence or absence of EGF (20 ng/ml).

[3] = tested on: H1650 lung adenocarcinoma cells (EGFR mutant ΔE746-A750); assay: MTS growth inhibition assay, H1650
Excerpt: as §1, §2

[4] = tested on: H1975 lung adenocarcinoma cells (EGFR mutant L858R and T790M); assay: MTS growth inhibition assay, H1975
Excerpt: as §1, §2

[5] = tested on: H3255 lung adenocarcinoma cells (EGFR mutant L858R); assay: MTS growth inhibition assay, H3255; conditions: 72 h, read-out: IC50 (half maximal inhibitory concentration), cell growth
Excerpt: as §1, §2

[6] = tested on: H441 lung adenocarcinoma cells (EGFR wild-type); assay: MTS growth inhibition assay, H441; conditions: 72 h, read-out: IC50 (half maximal inhibitory concentration), cell growth
Excerpt: as §1, §2

[7] = tested on: miR-21 expression in H441 cells; assay: qRT-PCR of miR-21 expression after AG1478 treatment, H441; conditions: H441, AG1478 at 10 μM, absence of EGF, p<0.05
Method: FIG. 7: AG1478 represses miR-21 expression in H441 lung adenocarcinoma cells. MiR-21 expression levels were analyzed by qRT-PCR after the AG1478 treatments (2 μM or 10 μM) in the absence of EGF and expressed relative to untreated cells. Data were mean±SD from triplicate. *, p<0.05, paired t-test.
as §4, §5

[8] = tested on: EGFR signaling (phospho-EGFR, phospho-Akt) in H3255 cells; assay: Western blot of p-EGFR and p-Akt after AG1478 treatment, H3255; conditions: H3255, AG1478 at either 2 μM or 10 μM for 2 h, with or without EGF 20 ng/ml
Method: as §3
FIG. 2A: The effect of AG1478 on phospho-EGFR (p-EGFR) and phospho-Akt (p-Akt) expression. β-actin was a loading control.
as §5
Cells were lysed in buffer containing 50 mM Tris-HCl, pH 7.6, 150 mM NaCl, 0.1% sodium dodecyl sulfate, 1% Nonidet P-40, and 0.5% sodium-deoxycholate. […] The supernatant was collected and then 10 μg of protein were separated by gel electrophoresis on 10% gels, transferred to nitrocellulose membranes and detected by immunoblotting using a chemiluminescence system (GE Healthcare Bio-Sciences Corp, Piscataway, N.J.). The images were quantified by measuring signal intensity using NIH ImageJ1.40g (rsb.info.nih.gov/ij/). […]

[9] = tested on: miR-21 in H3255 cells; assay: qRT-PCR of miR-21 after anti-miR-21 transfection, H3255; conditions: H3255, 40 nM, 72 h, vs anti-EGFP control
Method: (§6) FIG. 3A: Cells were transfected with 40 nM of anti-miR-21 (+) or control oligonucleotide (anti-EGFP) (−) for 72 h and examined by qRT-PCR. The expression levels of miR-21 after transfection of anti-miR-21 were expressed as the relative values to control. Data were mean±SD from three independent experiments. *, p<0.05, paired t-test.
as §4
(§7) 2′-O-methyl oligonucleotides were chemically synthesized at Integrated DNA Technologies (Coralville, Iowa). […] Activities of caspase-3 and caspase-7 were analyzed using ApoONE Homogeneous Caspase 3/7 Assay (Promega) according to the manufacturer's instructions. Samples were measured after 6 h of incubation with the caspase substrate on a fluorescent plate reader using wavelengths of 485 and 535 nm for excitation and emission, respectively. […]

[10] = tested on: H3255 cells (caspase-3 and caspase-7 activities); assay: ApoONE caspase 3/7 apoptosis assay, H3255
Method: (§8) FIGS. 3B-3C: Cells (H3255 or H441) were transfected with 40 nM of anti-miR-21 (+) or anti-EGFP (−) for 72 h and then grown in the presence or absence of 0.2 μM of AG1478 for 24 h (H3255) or 10 μM for 72 h (H441). The activities of caspase 3/7 were expressed as the relative values to the activities of cells without anti-miR-21 and AG1478. Data were mean±SD from at least four independent experiments. *, p<0.05, Student t-test.
(§9) 2′-O-methyl oligonucleotides were chemically synthesized at Integrated DNA Technologies (Coralville, Iowa). 2′-O-methyl oligonucleotides had the following sequences: 2′OMe-enhanced green fluorescent protein (EGFP) (anti-EGFP) 5′-AAGGCAAGCUGACCCUGAAGU-3′ [SEQ ID NO:1] and 2′OMe-miR-21 (anti-miR-21) 5′-UCA ACA UCA GUC UGA UAA GCUA-3′ [SEQ ID NO:2]. H441 and H3255 cells were plated in triplicate in 96-well plates. Cells were transfected using LipofectAMINE 2000 reagent (Invitrogen) 24 h after plating. […] Activities of caspase-3 and caspase-7 were analyzed using ApoONE Homogeneous Caspase 3/7 Assay (Promega) according to the manufacturer's instructions. Samples were measured after 6 h of incubation with the caspase substrate on a fluorescent plate reader using wavelengths of 485 and 535 nm for excitation and emission, respectively. […]

[11] = tested on: miR-21 in H441 cells; assay: qRT-PCR of miR-21 after anti-miR-21 transfection, H441; conditions: H441, 40 nM, 72 h, vs anti-EGFP control
Method: as §6, §4, §7

[12] = tested on: H441 cells (caspase-3 and caspase-7 activities); assay: ApoONE caspase 3/7 apoptosis assay, H441
Method: as §8, §9

[13] = tested on: uncleaved PARP in H441 cells; assay: Western blot of uncleaved PARP, H441; conditions: H441, anti-miR-21 in the presence or absence of AG1478 (2 μM, 72 h)
Method: (§10) FIG. 3D: Uncleaved PARP was evaluated by Western blot. Cells were transfected with anti-miR-21 or anti-EGFP as above and then grown in the presence or absence of 2 μM of AG1478 for 72 h. β-actin was a loading control.
(§11) Cells were lysed in buffer containing 50 mM Tris-HCl, pH 7.6, 150 mM NaCl, 0.1% sodium dodecyl sulfate, 1% Nonidet P-40, and 0.5% sodium-deoxycholate. The lysates were kept on ice for 30 min, and then centrifuged at 13000 g for 30 min. The supernatant was collected and then 10 μg of protein were separated by gel electrophoresis on 10% gels, transferred to nitrocellulose membranes and detected by immunoblotting using a chemiluminescence system (GE Healthcare Bio-Sciences Corp, Piscataway, N.J.). The images were quantified by measuring signal intensity using NIH ImageJ1.40g (rsb.info.nih.gov/ij/). The antibodies detecting EGFR, phospho-EGFR (Tyr1173), phospho-Akt (Ser473), PARP and β-actin were purchased from Cell Signaling Technology (Beverley, Mass.).

[14] = tested on: uncleaved PARP in H3255 cells; assay: Western blot of uncleaved PARP, H3255; conditions: H3255, both anti-miR-21 and AG1478 (2 μM, 72 h)
Method: as §10, §11

- IC50 [5]: 0.3 µM
- IC50 [6]: 10 µM
Compound: COc1cc2ncnc(Nc3cccc(Cl)c3)c2cc1OC [AG1478]
- cell proliferation [1]: inhibited cell proliferation
- miR-21 expression levels ([2]; H3255, absence of EGF, p<0.01): significantly repressed
- miR-21 expression levels ([2]; H3255, with EGF 20 ng/ml, p<0.05): inhibited back to the basal levels
- cell proliferation [3]: inhibited cell proliferation
- cell proliferation [4]: inhibited cell proliferation
- miR-21 expression [7]: significantly repressed miR-21 expression
- EGFR signaling (p-EGFR and p-Akt) [8]: effectively inhibited the EGFR signaling

Compound: EGF: Epidermal growth factor (EGF) ligand, purchased from Promega
- upregulation of miR-21 expression ([2]; H3255, serum-starved, EGF 20 ng/ml for 15 min, relative to untreated cells): ~2.5 fold

Compound: anti-miR-21: 2′-O-methyl antisense oligonucleotide targeting miR-21, 5′-UCA ACA UCA GUC UGA UAA GCUA-3′ [SEQ ID NO:2] (antisense UCAACAUCAGUCUGAUAAGCUA; all 2'-O-methyl, backbone not given here)
- miR-21 expression after antisense transfection [9]: repression of miR-21 in these cells was confirmed
- apoptosis (caspase 3/7 activities) ([10]; H3255, anti-miR-21 40 nM alone): did not induce apoptosis
- apoptosis (caspase 3/7 activities) ([10]; H3255, anti-miR-21 40 nM in combination with AG1478 at 0.2 μM for 24 h): significantly enhanced AG1478-induced apoptotic response
- miR-21 expression after antisense transfection [11]: repression of miR-21 in these cells was confirmed
- apoptosis (caspase 3/7 activities) ([12]; H441, anti-miR-21 40 nM alone): significant increase in apoptotic response
- apoptosis (caspase 3/7 activities) ([12]; H441, anti-miR-21 40 nM in combination with 10 μM AG1478 for 72 h): further enhanced apoptotic response
- amounts of uncleaved PARP [13]: markedly decreased
- amounts of uncleaved PARP [14]: markedly decreased
